The results in this text go back to patent US9926375B2, “Anti-endoglin antibodies and uses thereof” (Tracon Pharmaceuticals, Inc., priority 2014, dated 2018).

For one data set, the system named is NASH mice. The data set can be described thus: Murine model of non-alcoholic steatohepatitis (NASH; STZ and high fat diet). In kind it is in vivo, mouse. From the text: The purpose of this study was to examine the protective effects of endoglin antibodies on a murine model of NASH.
NASH was established by a single subcutaneous injection of STZ (Sigma, USA) after birth and feeding with a high fat diet (HFD; CLEA Japan, Japan) ad libitum after 4 weeks of age (day 28±2).
Randomization of mice into 6 groups of 10 mice was done at 9 weeks of age (day 63±2), the day before the start of treatment.
Group 3 (Positive control; Temlisartan Group): Ten NASH mice were be orally administered pure water supplemented with telmisartan at a dose of 10 mg/kg once daily from day 63 to 84.
Group 4 (Antibody M1043: M1043 Group): Ten NASH mice were intravenously administered vehicle supplemented with Antibody M1043 at a dose of 10 mg/kg twice weekly at day 63, 66, 70, 73, 77 and 80.
Group 5 (Antibody TRC105; TRC105 Group): Ten NASH mice were intravenously administered vehicle supplemented with Antibody TRC105 at a dose of 10 mg/kg twice weekly at day 63, 66, 70, 73, 77 and 80.
Group 6 (Antibody TRC205; TRC205 Group): Ten NASH mice were intravenously administered vehicle supplemented with Antibody TRC205 at a dose of 10 mg/kg twice weekly at days 63, 66, 70, 73, 77 and 80.
Mice in all groups were terminated for the following assays at 12 weeks of age.
H&E staining of liver tissue was conducted to estimate NAFLD Activity score.
Total NAS score represents the sum of scores for steatosis, lobular inflammation, and ballooning, and ranges from 0-8. Diagnosis of NASH (or, alternatively, fatty liver not diagnostic of NASH) should be made first, then NAS is used to grade activity. In the reference study, NAS scores of 0-2 occurred in cases largely considered not diagnostic of NASH, scores of 3-4 were evenly divided among those considered not diagnostic, borderline, or positive for NASH. Scores of 5-8 occurred in cases that were largely considered diagnostic of NASH.
Statistical tests were performed using Bonferroni Multiple Comparison Test. P values<0.05 were considered statistically significant.

The test system of data set [1] is peripheral blood mononuclear cells (PBMCs). Description: EpiScreen time course T cell proliferation assay with intact anti-endoglin antibodies. It is filed as cell-based, human. From the text: This example describes a method of screening anti-endoglin antibodies for T-cell epitopes. The interaction between MHC, polypeptide and T cell receptor (TCR) provides the structural basis for the antigen specificity of T cell recognition. T cell proliferation assays test the binding of polypeptides processed from antibodies to MHC and the recognition of MHC/polypeptide complexes by the TCR. In vitro T cell proliferation assays of the present example, involve the stimulation of peripheral blood mononuclear cells (PBMCs), containing antigen presenting cells (APCs) and T cells. Stimulation is conducted in vitro using intact anti-endoglin antibodies. Stimulated T cell proliferation is measured using ^3H-thymidine (^3H-Thy) and the presence of incorporated ^3H-Thymidine is assessed using scintillation counting of washed fixed cells.
Anti-endoglin antibodies were purified from the supernatants of mammalian cultures by protein A chromatography. Buffer exchange and protein concentration was done using PBS pH=7.4. Anti-endoglin antibody was further purified by size exclusion chromatography using a Sephacryl S200 column (GE Healthcare, AMersham, UK). The major peak is collected, filter sterilized and shown to have endotoxin levels <5 EU/mg using an Endosafe-PTS (Charles River, Margate, UK). The purified antibodies are stored at 4 degrees Celsius. Final concentrations were determined by UV absorption using calculated molar extinction coefficients, where A280 1.0=1.62 mg/mL. Each antibody was then diluted to 100 μg/mL in AIMV culture medium.
Peripheral Blood Mononuclear cells (PBMC) are isolated from healthy community donor buffy coats (from blood drawn within 24 hours) which are obtained from the UK National Blood Transfusion Service (Addenbrooke's Hospital, Cambridge, UK) according to approval granted by Addenbrooke's Hospital Local Research Ethics Committee. PBMC are isolated from buffy coats by Lymphoprep (Axis-shield, Dundee, Scotland) density centrifugation and CD8+ T cells are depleted using CD8+ RossetteSep™ (StemCell Technologies, Inc.). Donors are characterized by identifying HLA-DR haplotypes using a Biotest HLA SSP-PCR based tissue-typing kit (Biotest, Landsteinerstralβe, […]). T cell responses to a control antigen, Keyhole Limpet Haemocyanin (KLH) (Pierce, Rockford, Ill., USA) are determined for a positive control. PBMC were then frozen and stored in liquid nitrogen until required. When required for use, cells are thawed rapidly in a water bath at 37° C. before transferring to 10 ml pre-warmed AIM V medium.
A cohort of 20 donors is selected to best represent the number and frequency of HLA-DR allotypes expressed in the world population. […]
PBMCs from each donor are thawed, counted and viability assessed. […]

In another data set the target is T1, human endoglin (Homo sapiens, UniProt P17813).
T1 sequence (P17813 26-658): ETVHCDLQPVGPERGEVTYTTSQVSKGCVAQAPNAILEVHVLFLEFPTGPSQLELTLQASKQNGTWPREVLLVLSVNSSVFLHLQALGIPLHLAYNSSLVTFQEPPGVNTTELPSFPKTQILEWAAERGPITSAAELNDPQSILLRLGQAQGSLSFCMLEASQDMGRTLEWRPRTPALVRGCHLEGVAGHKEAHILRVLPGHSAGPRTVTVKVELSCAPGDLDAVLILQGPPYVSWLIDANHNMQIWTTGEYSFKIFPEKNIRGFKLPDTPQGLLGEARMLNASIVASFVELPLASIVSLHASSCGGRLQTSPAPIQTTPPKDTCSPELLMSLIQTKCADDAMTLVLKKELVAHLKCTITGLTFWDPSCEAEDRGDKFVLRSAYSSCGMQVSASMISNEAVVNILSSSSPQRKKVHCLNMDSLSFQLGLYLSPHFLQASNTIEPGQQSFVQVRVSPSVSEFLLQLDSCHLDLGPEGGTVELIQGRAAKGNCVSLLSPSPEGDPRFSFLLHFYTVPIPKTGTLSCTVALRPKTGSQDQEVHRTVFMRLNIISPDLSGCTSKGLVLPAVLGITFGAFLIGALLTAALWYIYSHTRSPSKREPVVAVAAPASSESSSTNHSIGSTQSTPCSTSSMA
Description: BIAcore (surface plasmon resonance) analysis of anti-endoglin antibody binding. Particulars: antibody captured on protein A chip, 25 degrees Celsius. The method, then:
Affinity of antibodies can be assessed using, for example, BIAcore analysis using standard protocols. Briefly, protein A is chemically coupled to a BIAcore CM5 chip, with the amount of protein A immobilized corresponding to 2000 RU. Subsequent steps are performed in a running buffer of 10 mM HEPES, 150 mM NaCl, 3 mM EDTA, 0.05% TWEEN, pH=7.4, at 25 degrees Celsius using a 10 Hz data collection rate. Anti-endoglin antibody (10 nM) is captured at a 10 μL/min flow rate by the immobilized protein A on the BIAcore chip: typically, capture times of 20, 40 and 80 seconds allow the capture of antibody densities corresponding to 130 RU, 330 RU and 570 RU, respectively. Start-up cycles are performed using running buffer at a flow rate of 40 μL/min, a contact time of 90 seconds and a dissociation time of 90 seconds. Sample cycles are performed using recombinant endoglin at concentrations ranging from 0 to 40 nM. Endoglin is passed over the BIAcore chip containing captured antibody at a flow rate of 40 μL/min with a contact time of 525 seconds and dissociation time of 2500 seconds. Eight sample cycles are typically performed at each antibody capture density. Regeneration of the chip is accomplished using 10 mM glycine pH=1.7. Data analysis is performed using BIAcore T100 Evaluation Software v1.1 Signals generated using BIAcore chips with different captured antibody densities are compared and data generated in the absence of recombinant endoglin are used to adjust for the intraassay blank signal. For fitting of the data, the Rmax is allowed to float to account for variation in capture levels of each antibody in each cycle. Data from each capture density is fitted simultaneously during analysis of each antibody. BIAcore data are presented in Table 2 for chimeric, humanized and deimmunized anti-endoglin antibodies, including ka (1/Ms), kd (1/s), KD (M) and Chi^2 (RU^2).
Background: In SPR one partner is held on a chip, and binding of the other changes the refractive index at the surface.

[2] abbreviates: liver gene expression, mean ± SD, Normal-Vehicle 1.0.

For `CCCc1nc2c(C)cc(-c3nc4ccccc4n3C)cc2n1Cc1ccc(-c2ccccc2C(=O)O)cc1` [Telmisartan, telmisartan, reference compound], in the data set on NASH mice (Bonferroni, P<0.05), the “Alpha-smooth muscle actin mRNA expression levels compared with the NASH-Vehicle group” value is listed as “significantly down-regulated”, the “Liver triglyceride contents compared with the NASH-Vehicle group” value is “significant decreases”, the “Macrophage chemoattractant protein-1 mRNA expression levels compared with the NASH-Vehicle group” value is on record as “tended to decrease” and the “Mean liver weight compared with the NASH-Vehicle group” value is on record as “significant decrease”. Further, in the data set with NASH mice (Bonferroni, P<0.05), the “Mean liver-to-body weight ratio compared with the NASH-Vehicle group” value was “significant decreases”, the “NAS compared with the NASH-Vehicle group” value is “significant decreases in NAS”, the “Serum alanine aminotransferase (ALT) levels compared with the NASH-Vehicle group” value is listed as “tended to decrease” and the “Sirius red-positive area compared with the NASH-Vehicle group” value is “significant decrease”. Besides, the “F4/80-positive signals and cells in liver compared with the NASH-Vehicle group” value with NASH mice (F4/80 immunostaining, macrophage marker) was “No obvious changes”. Further, in the data set on NASH mice (setting [2]), the “Alpha-SMA mRNA expression” value is on record as 0.7 ± 0.3, the “MCP-1 mRNA expression” value is listed as 1.5 ± 1.1, the “TIMP-1 mRNA expression” value is 5.8 ± 3.7 and the “TNF-α mRNA expression” value was determined as 3.2 ± 2.3. Besides, in the data set with NASH mice (mean ± SD), the Liver triglyceride worked out at 23.5 ± 10.6 mg/g liver, the “Serum ALP” value came to 444 ± 134 U/L, the “Serum ALT” value is recorded as 29 ± 15 U/L and the “Serum AST” value amounted to 113 ± 32 U/L. Also, in the data set with NASH mice (mean ± SD, liver sections), the Sirius red-positive area worked out at 0.67 ± 0.12%. The “NAS (NAFLD Activity score)” value with NASH mice (mean ± SD, range 0-8, 10 mg/kg) is given as 3.3 ± 1.2. Moreover, in the data set on NASH mice (score 0 = No Foci), the “Lobular inflammation score 0, number of mice” value was 3. Also, in the data set with NASH mice (score 0 = None), the “Hepatocyte ballooning score 0, number of mice” value is listed as 1. The “Steatosis score 1, number of mice” value in the data set on NASH mice (score 1 = 5-33%) is on record as 9. For the same molecule, the “Lobular inflammation score 1, number of mice” value in the data set on NASH mice (score 1 = <2 foci/200x) is 4. For the same molecule, in the data set with NASH mice (score 1 = Few balloon cells), the “Hepatocyte ballooning score 1, number of mice” value is listed as 3. Further, the “Lobular inflammation score 2, number of mice” value with NASH mice (score 2 = 2-4 foci/200x) is given as 2. The “Hepatocyte ballooning score 2, number of mice” value in the data set on NASH mice (score 2 = Many cells/prominent ballooning) is reported as 5.

B1: VK1VH1: humanized anti-endoglin antibody (antibody, V domains shown)
VH: EVQLVESGGGLVKPGGSLRLSCAASGFTFSDAWMDWVRQAPGKGLEWVGEIRSKASNHATYYAESVKGRFTISRDDSKNTLYLQMNSLKTEDTAVYYCTRWRRFFDSWGQGTLVTVSS
VL: DIQMTQSPSSLSASVGDRVTITCRASSSVSYMHWYQQKPGKAPKPWIYATSNLASGVPSRFSGSGSGTDYTLTISSLQPEDFATYYCQQWSSNPLTFGGGTKVEIK
Take B1: the “Responding donors, % of the study cohort” value in data set [1] (cohort of 20 donors, 50 μg/mL antibody) stood at 10%. Moreover, the “Stimulation index (borderline response)” value in data set [1] (donor 20) is given as 1.91. Besides, the “Donors with positive T cell proliferation responses” value in data set [1] (of 20 donors, 50 μg/mL antibody, SI≥2 (borderline ≥1.90), p<0.05) was 2.

B2: VK1AAVH1Q: humanized/deimmunized anti-endoglin antibody (antibody, V domains shown)
VH: EVQLVESGGGLVKPGGSLRLSCAASGFTFSDAWMDWVRQAPGKGLEWVGEIRSQASNHATYYAESVKGRFTISRDDSKNTLYLQMNSLKTEDTAVYYCTRWRRFFDSWGQGTLVTVSS
VL: DIQMTQSPSSLSASVGDRATITCRASSSVSYMHWYQQKPGKAPKPWAYATSNLASGVPSRFSGSGSGTDYTLTISSLQPEDFATYYCQQWSSNPLTFGGGTKVEIK
In the data set with human endoglin, B2 gave a ka of 35600 M⁻¹ s⁻¹ and a kd of 3.03e-05 s⁻¹.

B3: VK1AAVH1R: humanized/deimmunized anti-endoglin antibody (antibody, V domains shown)
VH: EVQLVESGGGLVKPGGSLRLSCAASGFTFSDAWMDWVRQAPGKGLEWVGEIRSRASNHATYYAESVKGRFTISRDDSKNTLYLQMNSLKTEDTAVYYCTRWRRFFDSWGQGTLVTVSS
VL: DIQMTQSPSSLSASVGDRATITCRASSSVSYMHWYQQKPGKAPKPWAYATSNLASGVPSRFSGSGSGTDYTLTISSLQPEDFATYYCQQWSSNPLTFGGGTKVEIK
For the molecule B3, in the data set with human endoglin, the ka came to 64000 M⁻¹ s⁻¹ and the kd amounted to 3.41e-05 s⁻¹.
